According to patent US5665738A, “Imidazole derivatives and processes for the preparation thereof” (Korea Research Institute of Chemical Technology, priority 1994, dated 1997):

test system: angiotensin II receptor; assay: Angiotensin II receptor binding assay ([3H] angiotensin II displacement); conditions: 60 minutes at 25° C., pH 7.2, test concentration not given
Experimental: The inventive compounds were tested to measure their angiotensin II receptor binding capacity as follows.
1. Angiotensin II receptor binding assay
In accordance with the procedure disclosed in Chiu, A. T. et al., Eur. J. Pharm., 157, 13 ([…])t a ligand marked with a radioistope was reacted with an angiotensin II receptor and the reactant was filtered with a glass fiber to remove unreacted ligand. After washing the filter, the amount of the remaining isotope was measured to determine the binding activity of the ligand, as described below in detail.
(i) Isolation of angiotensin II receptor
Sprague-Dawley rats and Wistar rats of 250 to 350 g (from The Korea Research Institute of Chemical Technology) were tested and the test procedures were carried out at 4° C., unless otherwise specified. Adrenal gland was separated from the Sprague-Dawley rats (liver, in the case of Wistar rats) into cortex and medulla. The separated adrenal cortex and medulla were washed with a sucrose buffer solution (0.2M sucrose, 1 mM EDTA, 10 mM Tris, pH 7.2) and homogenized in the same buffer solution by using a Teflon pestle and a Brinkmann homogenizer. The homogenates were centrifuged at 3,000× g for 10 minutes to remove precipitates and further centrifuged at 12,000× g for 13 minutes. The final supernatants were centrifuged at 102,000× g for 1 hour to obtain precipitates, which were washed with a Tris buffer solution (50 mM Tris, 5 mM MgCl2, pH 7.2) and re-centrifuged at 102,000× g for 1 hour. The resulting precipitates were immediately processed at the following step or stored at -70° C.
The precipitates were suspended in a Tris buffer solution. The amount of protein was determined by using a Bio-Rad DC protein analyzing kit and the protein concentration was adjusted to the amounts of: 0.2 to 0.3 mg/ml (Sprague-Dawley rat: adrenal cortex), 1.5 to 2.0 mg/ml (Sprague-Dawley rat: adrenal medulla), and 1.5 to 2.0 mg/ml (Wistar rat: liver). To the suspension, bovine serum albumin (BSA) was added to a concentration of 0.25 wt % and the resultant was immediately processed at the following step or stored at -70° C.
(ii) Measurement of angiotensin II receptor binding capacity
50 μl (based on ligand) of [^3 H] angiotensin II (NEN, NET-446) and 10 μl of each of the test compounds with various concentrations were added to the buffer solution (50 mM Tris (pH 7.2), 5 mM MgCl2, 0.25% BSA) to adjust the final volume to be 0.5 ml. Losartan (Dup 753), which is disclosed in EP No. 400,974 issued to Merck, was used as the control compound. 100 μl of the receptor suspension was added thereto and the resulting solution was reacted for 60 minutes while stirring in a water bath at 25° C. 3 ml of cold buffer solution for analysis was added to cease the reaction. The isotope which was bound to the receptor was isolated from the resultant by using Brandel Cell Harvester System with Whatman glass fiber GF/C. After washing the filter, the radioactivity of the filter was determined by using a liquid scintillation counter. Binding inhibition (%) of the test compound was calculated as follows:
Binding Inhibition (%)=[{(T-B)-(S-B)}/(T-B)]×100
wherein T is the radioactivity (cpm) of the reaction product untreated with the test compound, S is the radioactivity (cpm) of the reaction product treated with the test compound, and B is the radioactivity (cpm) of blank test.

Binding Inhibition (%)	SMILES
95.6%	CCCCc1nc(Cl)c(C(=O)c2ccc(CN(CC)CC)cn2)n1Cc1ccc(-c2ccccc2-c2nnn[nH]2)cc1 [Compound 34, {2-butyl-5-chloro-3-[(2'-(1H-tetrazol-5-yl)biphenyl-4-yl)methyl]-3H-imidazol-4-yl}[5-((diethylamino)methyl)pyridin-2-yl]methanone]
71.2%	CCCCc1nc(Cl)c(C(O)c2cccc(C(OC)OC)n2)n1Cc1ccc(-c2ccccc2-c2nnn[nH]2)cc1 (stereo not drawn) [Compound 4, {2-butyl-5-chloro-3-[(2'-(1H-tetrazol-5-yl)biphenyl-4-yl)methyl]-3H-imidazol-4-yl}[6-(dimethoxymethyl)pyridin-2-yl]methanol]
90.5%	CCCCc1nc(Cl)c(C(=O)c2cccc(CN(CC)CC)n2)n1Cc1ccc(-c2ccccc2-c2nnn[nH]2)cc1 [Compound 13, {2-butyl-5-chloro-3-[(2'-(1H-tetrazol-5-yl)biphenyl-4-yl)methyl]-3H-imidazol-4-yl}[6-((diethylamino)methyl)pyridin-2-yl]methanone]
87.5%	CCCCc1nc(Cl)c(C(=O)c2ccc(C(OC)OC)c(C)[n+]2[O-])n1Cc1ccc(-c2ccccc2-c2nn[nH]n2)cc1 [Compound 39, {2-butyl-5-chloro-3-[(2'-(1H-tetrazol-5-yl)biphenyl-4-yl)methyl]-3H-imidazol-4-yl}[5-(dimethoxymethyl)-6-methyl-1-oxypyridin-2-yl]methanone]
88.6%	CCCCc1nc(Cl)c(C(=O)c2cccc(Br)[n+]2[O-])n1Cc1ccc(-c2ccccc2-c2nn[nH]n2)cc1 [Compound 15, {2-butyl-5-chloro-3-[(2'-(1H-tetrazol-5-yl)biphenyl-4-yl)methyl]-3H-imidazol-4-yl}(6-bromo-1-oxypyridin-2-yl)methanone]
93.4%	CCCCc1nc(Cl)c(C(=O)c2ccc(C=O)c[n+]2[O-])n1Cc1ccc(-c2ccccc2-c2nn[nH]n2)cc1 [Compound 23, {2-butyl-5-chloro-3-[(2'-(1H-tetrazol-5-yl)biphenyl-4-yl)methyl]-3H-imidazol-4-yl}(5-formyl-1-oxypyridin-2-yl)methanone]
96.3%	CCCCc1nc(Cl)c(C(=O)c2cccc(CO)[n+]2[O-])n1Cc1ccc(-c2ccccc2-c2nn[nH]n2)cc1 [Compound 3, {2-butyl-5-chloro-3-[(2'-(1H-tetrazol-5-yl)biphenyl-4-yl)methyl]-3H-imidazol-4-yl}(6-hydroxymethyl-1-oxypyridin-2-yl)methanone]
91.1%	CCCCc1nc(Cl)c(C(=O)c2cccc(CN(CC)CC)[n+]2[O-])n1Cc1ccc(-c2ccccc2-c2nn[nH]n2)cc1 [Compound 10, {2-butyl-5-chloro-3-[(2'-(1H-tetrazol-5-yl)biphenyl-4-yl)methyl]-3H-imidazol-4-yl}[6-(diethylamino)methyl-1-oxypyridin-2-yl]methanone]
79.8%	CCCCc1nc(Cl)c(C(=O)c2cccc(C=O)n2)n1Cc1ccc(-c2ccccc2-c2nnn[nH]2)cc1 [Compound 7, {2-butyl-5-chloro-3-[(2'-(1H-tetrazol-5-yl)biphenyl-4-yl)methyl]-3H-imidazol-4-yl}(6-formylpyridin-2-yl)methanone]
75.4%	CCCCc1nc(Cl)c(C(O)c2cccc(C(=O)N(CC)CC)[n+]2[O-])n1Cc1ccc(-c2ccccc2-c2nn[nH]n2)cc1 (stereo not drawn) [Compound 36, {2-butyl-5-chloro-3-[(2'-(1H-tetrazol-5-yl)biphenyl-4-yl)methyl]-3H-imidazol-4-yl}[6-(diethylamino)carbonyl-1-oxypyridin-2-yl]methanol]
99.9%	CCCCc1nc(Cl)c(C(=O)c2cccc(C[N+]([O-])(CC)CC)[n+]2[O-])n1Cc1ccc(-c2ccccc2-c2nn[nH]n2)cc1 [Compound 11, {2-butyl-5-chloro-3-[(2'-(1H-tetrazol-5-yl)biphenyl-4-yl)methyl]-3H-imidazol-4-yl}[6-((diethyl)(oxy)amino)methyl-1-oxypyridin-2-yl]methanone]
64.9%	CCCCc1nc(Cl)c(C(O)c2cccc(C=O)n2)n1Cc1ccc(-c2ccccc2-c2nnn[nH]2)cc1 (stereo not drawn) [Compound 5, {2-butyl-5-chloro-3-[(2'-(1H-tetrazol-5-yl)biphenyl-4-yl)methyl]-3H-imidazol-4-yl}(6-formylpyridin-2-yl)methanol]
92.1%	CCCCc1nc(Cl)c(C(=O)c2cccc(C[N+]([O-])(CC)CC)n2)n1Cc1ccc(-c2ccccc2-c2nn[nH]n2)cc1 [Compound 14, {2-butyl-5-chloro-3-[(2'-(1H-tetrazol-5-yl)biphenyl-4-yl)methyl]-3H-imidazol-4-yl}[6-[((diethyl)(oxy)amino)methyl]pyridin-2-yl]methanone]
97.9%	CCCCc1nc(Cl)c(C(=O)c2ccc(C[N+]([O-])(CC)CC)cn2)n1Cc1ccc(-c2ccccc2-c2nn[nH]n2)cc1 [Compound 35, {2-butyl-5-chloro-3-[(2'-(1H-tetrazol-5-yl)biphenyl-4-yl)methyl]-3H-imidazo1-4-yl}{5-[((diethyl)(oxy)amino)methyl]pyridin-2-yl}methanone]
91.2%	CCCCc1nc(Cl)c(C(=O)c2cccc(C(OC)OC)n2)n1Cc1ccc(-c2ccccc2-c2nnn[nH]2)cc1 [Compound 6, {2-butyl-5-chloro-3-[(2'-(1H-tetrazol-5-yl)biphenyl-4-yl)methyl]-3H-imidazol-4-yl}[6-(dimethoxymethyl)pyridin-2-yl]methanone]
76.1%	CCCCc1nc(Cl)c(C(O)c2ccc(CO)c[n+]2[O-])n1Cc1ccc(-c2ccccc2-c2nn[nH]n2)cc1 (stereo not drawn) [Compound 24, {2-butyl-5-chloro-3-[(2'-(1H-tetrazol-5-yl1)biphenyl1-4-yl)methyl1]-3H-imidazol-4-yl}(5-hydroxymethyl-1-oxypyridin-2-yl)methanol]
48.0%	CCCCc1nc(Cl)c(CO)n1Cc1ccc(-c2ccccc2-c2nn[nH]n2)cc1 [Dup 753, Losartan, reference compound]
91.1%	CCCCc1nc(Cl)c(C(=O)c2cccc(C(OC)OC)[n+]2[O-])n1Cc1ccc(-c2ccccc2-c2nn[nH]n2)cc1 [Compound 1, {2-butyl-5-chloro-3-[(2'-(1H-tetrazol-5-yl)biphenyl-4-yl)methyl]-3H-imidazol-4-yl}[6-(dimethoxymethyl)-1-oxypyridin-2-yl]methanone]
